Source: ChEMBL document CHEMBL3991601, “The target landscape of clinical kinase drugs” (Science, 2017)
Calls of active or inactive are those of the source.

Assays:
[1] = target: T1, Dual specificity protein kinase TTK (Homo sapiens, UniProt P33981)
T1 sequence (P33981 whole entry): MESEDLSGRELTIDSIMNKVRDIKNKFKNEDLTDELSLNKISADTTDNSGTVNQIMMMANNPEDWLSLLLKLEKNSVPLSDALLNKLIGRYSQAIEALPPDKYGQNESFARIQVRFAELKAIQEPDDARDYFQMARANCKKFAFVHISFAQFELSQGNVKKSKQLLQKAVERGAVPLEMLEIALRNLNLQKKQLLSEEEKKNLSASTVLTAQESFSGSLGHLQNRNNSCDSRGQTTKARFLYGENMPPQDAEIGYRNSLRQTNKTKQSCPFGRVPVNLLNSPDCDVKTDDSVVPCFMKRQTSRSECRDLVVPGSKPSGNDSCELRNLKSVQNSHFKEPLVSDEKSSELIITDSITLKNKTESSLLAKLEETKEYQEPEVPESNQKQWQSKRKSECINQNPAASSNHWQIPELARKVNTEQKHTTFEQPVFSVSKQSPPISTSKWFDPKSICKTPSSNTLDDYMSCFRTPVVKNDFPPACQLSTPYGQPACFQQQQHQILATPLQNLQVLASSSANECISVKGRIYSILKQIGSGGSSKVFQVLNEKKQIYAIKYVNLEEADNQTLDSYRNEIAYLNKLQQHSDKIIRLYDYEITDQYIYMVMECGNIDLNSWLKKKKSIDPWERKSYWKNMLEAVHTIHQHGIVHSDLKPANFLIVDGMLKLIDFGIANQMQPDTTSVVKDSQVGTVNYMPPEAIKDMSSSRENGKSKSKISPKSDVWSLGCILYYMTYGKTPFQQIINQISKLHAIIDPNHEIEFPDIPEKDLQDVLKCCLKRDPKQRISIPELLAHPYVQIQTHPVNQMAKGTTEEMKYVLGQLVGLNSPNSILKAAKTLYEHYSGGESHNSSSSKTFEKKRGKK

[2] = target: Serine/threonine-protein kinase 38-like (Homo sapiens, UniProt Q9Y2H1)
[3] = target: T2, Long-chain-fatty-acid--CoA ligase 5 (Homo sapiens, UniProt Q9ULC5)
T2 sequence (Q9ULC5 whole entry): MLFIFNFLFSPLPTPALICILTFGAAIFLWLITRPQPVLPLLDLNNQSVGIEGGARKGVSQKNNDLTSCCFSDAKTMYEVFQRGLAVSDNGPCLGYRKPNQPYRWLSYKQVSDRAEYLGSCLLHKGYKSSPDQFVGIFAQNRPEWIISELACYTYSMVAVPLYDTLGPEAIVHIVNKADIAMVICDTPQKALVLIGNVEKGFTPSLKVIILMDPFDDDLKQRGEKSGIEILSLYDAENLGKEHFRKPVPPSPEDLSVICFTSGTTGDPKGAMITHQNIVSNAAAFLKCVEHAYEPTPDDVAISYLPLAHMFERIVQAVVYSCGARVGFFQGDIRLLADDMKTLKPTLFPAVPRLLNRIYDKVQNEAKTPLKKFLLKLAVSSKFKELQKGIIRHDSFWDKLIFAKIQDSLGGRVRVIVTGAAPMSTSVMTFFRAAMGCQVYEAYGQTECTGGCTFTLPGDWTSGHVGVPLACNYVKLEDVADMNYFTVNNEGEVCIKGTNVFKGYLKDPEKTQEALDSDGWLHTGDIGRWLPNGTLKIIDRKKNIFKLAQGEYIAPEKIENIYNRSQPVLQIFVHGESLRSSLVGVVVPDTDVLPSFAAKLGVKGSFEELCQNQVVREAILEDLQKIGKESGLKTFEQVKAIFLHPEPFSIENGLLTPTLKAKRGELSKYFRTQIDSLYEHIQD

[4] = target: T3, Isoleucine--tRNA ligase, mitochondrial (Homo sapiens, UniProt Q9NSE4)
T3 sequence (Q9NSE4 whole entry): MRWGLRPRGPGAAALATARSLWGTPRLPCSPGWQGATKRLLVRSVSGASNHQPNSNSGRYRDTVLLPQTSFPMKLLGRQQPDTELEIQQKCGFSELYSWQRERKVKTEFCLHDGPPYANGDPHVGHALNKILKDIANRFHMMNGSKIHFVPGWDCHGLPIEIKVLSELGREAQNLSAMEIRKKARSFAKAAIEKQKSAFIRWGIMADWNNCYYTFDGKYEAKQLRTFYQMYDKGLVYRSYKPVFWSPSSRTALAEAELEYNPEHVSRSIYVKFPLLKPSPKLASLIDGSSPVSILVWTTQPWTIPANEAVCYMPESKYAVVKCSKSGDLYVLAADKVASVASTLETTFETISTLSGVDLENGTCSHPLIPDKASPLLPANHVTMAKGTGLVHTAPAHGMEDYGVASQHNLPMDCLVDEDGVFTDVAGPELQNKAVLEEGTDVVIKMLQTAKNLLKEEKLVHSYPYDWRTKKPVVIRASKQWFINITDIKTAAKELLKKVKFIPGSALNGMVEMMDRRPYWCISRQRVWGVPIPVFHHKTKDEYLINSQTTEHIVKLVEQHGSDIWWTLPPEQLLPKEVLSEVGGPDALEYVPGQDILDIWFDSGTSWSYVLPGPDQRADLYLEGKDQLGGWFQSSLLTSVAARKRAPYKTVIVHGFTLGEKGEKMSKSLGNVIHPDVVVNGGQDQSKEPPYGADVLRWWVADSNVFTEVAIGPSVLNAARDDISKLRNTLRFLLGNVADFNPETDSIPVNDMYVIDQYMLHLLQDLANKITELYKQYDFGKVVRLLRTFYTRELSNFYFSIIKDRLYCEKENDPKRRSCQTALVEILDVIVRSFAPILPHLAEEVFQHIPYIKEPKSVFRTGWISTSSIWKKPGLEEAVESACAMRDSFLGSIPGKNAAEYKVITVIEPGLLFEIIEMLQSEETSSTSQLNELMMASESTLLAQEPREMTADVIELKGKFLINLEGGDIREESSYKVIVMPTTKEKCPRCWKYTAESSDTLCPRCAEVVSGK

Ephrin type-A receptor 7 = Ephrin type-A receptor 7 (Homo sapiens, UniProt Q15375)
[5] = target: Mitogen-activated protein kinase 14 (Homo sapiens, UniProt Q16539)
[6] = target: Uncharacterized aarF domain-containing protein kinase 5 (Homo sapiens, UniProt Q3MIX3)
Note: in the data inactive means no Kd found up to 30 µM.

Sequence of Ephrin type-A receptor 7 (Q15375 whole entry): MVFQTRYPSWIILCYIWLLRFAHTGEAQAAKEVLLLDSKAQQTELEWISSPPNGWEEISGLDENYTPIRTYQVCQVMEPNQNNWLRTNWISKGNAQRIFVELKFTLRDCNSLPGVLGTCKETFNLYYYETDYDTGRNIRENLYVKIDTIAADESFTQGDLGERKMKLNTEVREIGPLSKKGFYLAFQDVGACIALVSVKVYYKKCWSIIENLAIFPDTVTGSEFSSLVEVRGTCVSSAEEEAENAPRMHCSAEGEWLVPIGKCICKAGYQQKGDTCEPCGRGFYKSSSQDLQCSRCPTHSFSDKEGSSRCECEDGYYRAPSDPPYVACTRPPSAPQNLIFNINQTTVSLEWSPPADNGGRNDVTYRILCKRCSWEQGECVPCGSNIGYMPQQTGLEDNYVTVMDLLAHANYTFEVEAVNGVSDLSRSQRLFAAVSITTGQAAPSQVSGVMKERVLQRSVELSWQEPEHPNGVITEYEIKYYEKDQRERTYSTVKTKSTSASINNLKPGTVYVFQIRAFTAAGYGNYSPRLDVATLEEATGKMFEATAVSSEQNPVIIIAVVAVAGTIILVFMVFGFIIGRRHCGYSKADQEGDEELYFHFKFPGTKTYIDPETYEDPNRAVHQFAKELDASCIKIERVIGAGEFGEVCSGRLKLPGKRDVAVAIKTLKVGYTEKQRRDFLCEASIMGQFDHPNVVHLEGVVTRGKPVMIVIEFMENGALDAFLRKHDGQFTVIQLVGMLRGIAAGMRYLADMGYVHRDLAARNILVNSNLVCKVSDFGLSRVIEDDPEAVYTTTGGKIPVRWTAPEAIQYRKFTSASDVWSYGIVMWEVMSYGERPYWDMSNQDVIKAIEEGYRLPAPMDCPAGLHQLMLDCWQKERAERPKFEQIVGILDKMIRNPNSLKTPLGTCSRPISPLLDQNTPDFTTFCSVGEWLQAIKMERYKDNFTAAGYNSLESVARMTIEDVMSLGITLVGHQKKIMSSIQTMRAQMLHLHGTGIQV
Sequence of Uncharacterized aarF domain-containing protein kinase 5 (Q3MIX3 whole entry, the tested form may be a part): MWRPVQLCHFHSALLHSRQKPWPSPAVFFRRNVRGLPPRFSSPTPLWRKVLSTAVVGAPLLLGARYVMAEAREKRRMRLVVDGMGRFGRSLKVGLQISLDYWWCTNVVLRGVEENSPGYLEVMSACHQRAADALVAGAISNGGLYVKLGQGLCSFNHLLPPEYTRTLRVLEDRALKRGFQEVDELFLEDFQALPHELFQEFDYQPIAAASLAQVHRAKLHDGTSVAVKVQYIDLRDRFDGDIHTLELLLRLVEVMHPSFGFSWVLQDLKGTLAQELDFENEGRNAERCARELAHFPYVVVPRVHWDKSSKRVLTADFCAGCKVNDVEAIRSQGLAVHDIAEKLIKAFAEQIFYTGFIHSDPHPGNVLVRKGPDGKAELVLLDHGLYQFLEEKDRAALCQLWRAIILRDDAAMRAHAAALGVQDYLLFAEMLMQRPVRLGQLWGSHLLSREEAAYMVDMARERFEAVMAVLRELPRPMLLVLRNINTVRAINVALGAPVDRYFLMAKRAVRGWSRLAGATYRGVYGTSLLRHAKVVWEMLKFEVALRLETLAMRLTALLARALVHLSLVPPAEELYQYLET
Sequence of Serine/threonine-protein kinase 38-like (Q9Y2H1 whole entry): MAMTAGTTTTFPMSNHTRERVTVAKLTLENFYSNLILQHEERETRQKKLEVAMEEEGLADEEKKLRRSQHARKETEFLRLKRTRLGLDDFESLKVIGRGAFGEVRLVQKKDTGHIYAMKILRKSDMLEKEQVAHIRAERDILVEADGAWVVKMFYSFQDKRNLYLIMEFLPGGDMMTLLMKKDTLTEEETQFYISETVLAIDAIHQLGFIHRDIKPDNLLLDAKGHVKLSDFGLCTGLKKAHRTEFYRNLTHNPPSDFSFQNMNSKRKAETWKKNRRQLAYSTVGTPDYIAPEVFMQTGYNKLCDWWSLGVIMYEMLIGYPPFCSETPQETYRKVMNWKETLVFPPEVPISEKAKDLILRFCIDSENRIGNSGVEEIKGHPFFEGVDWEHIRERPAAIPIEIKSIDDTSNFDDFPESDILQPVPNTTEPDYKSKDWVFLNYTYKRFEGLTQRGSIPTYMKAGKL
Sequence of Mitogen-activated protein kinase 14 (Q16539 whole entry, the tested form may be a part): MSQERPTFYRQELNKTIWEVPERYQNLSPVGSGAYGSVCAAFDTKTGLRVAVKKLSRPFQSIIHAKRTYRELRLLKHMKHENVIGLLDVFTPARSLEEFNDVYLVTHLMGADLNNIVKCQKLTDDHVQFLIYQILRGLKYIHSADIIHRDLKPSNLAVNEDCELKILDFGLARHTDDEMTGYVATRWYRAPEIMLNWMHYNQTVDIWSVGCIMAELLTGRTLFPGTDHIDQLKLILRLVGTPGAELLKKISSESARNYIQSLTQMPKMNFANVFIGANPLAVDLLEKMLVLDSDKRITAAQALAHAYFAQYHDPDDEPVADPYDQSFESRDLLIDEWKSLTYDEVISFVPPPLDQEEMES

Row | SMILES | Kd [1] | Kd [2] | Kd [3] | Kd [4] | Kd (Ephrin type-A receptor 7) | Kd [5] | Kd [6]
1 | Cc1ccc(S(=O)(=O)Nc2nc3ccccc3nc2Nc2ccc3nsnc3c2)cc1 | > 30 µM (inactive) | > 30 µM (inactive) | > 30 µM (inactive) | > 30 µM (inactive) | > 30 µM (inactive) | > 30 µM (inactive) | 
2 | Cc1ccc(NC(=O)c2ccc(CN3CC[C@H](N(C)C)C3)c(C(F)(F)F)c2)cc1Nc1nccc(-c2cncnc2)n1 [BAFETINIB] | > 30 µM (inactive) | > 30 µM (inactive) | > 30 µM (inactive) |  | > 30 µM (inactive) | 0.536 µM (active) | > 30 µM (inactive)
3 | Cc1cc2c(F)c(Oc3ncnn4cc(OC[C@@H](C)OC(=O)[C@H](C)N)c(C)c34)ccc2[nH]1 [BRIVANIB ALANINATE] | > 30 µM (inactive) | > 30 µM (inactive) | > 30 µM (inactive) |  | > 30 µM (inactive) | > 30 µM (inactive) | > 30 µM (inactive)
4 | COC(=O)[C@@]1(O)C[C@H]2O[C@]1(C)n1c3ccccc3c3c4c(c5c6ccccc6n2c5c31)C(=O)NC4 [K-252A] | 0.03 µM | 2.14 µM (active) | > 30 µM (inactive) |  | > 30 µM (inactive) | > 30 µM (inactive) | > 30 µM (inactive)
5 | Cc1ccc(-n2nc(C(C)(C)C)cc2NC(=O)NCc2cc(F)ccc2Oc2ccc3c(cnn3CCO)c2)cc1 [PEXMETINIB] | > 30 µM (inactive) | > 30 µM (inactive) | > 30 µM (inactive) | > 30 µM (inactive) | 3.31 µM (active) |  | 
6 | CNC(=O)CN1CCC(Oc2cc3c(Nc4cccc(Cl)c4F)ncnc3cc2OC)CC1 [SAPITINIB] | > 30 µM (inactive) | > 30 µM (inactive) | > 30 µM (inactive) |  | > 30 µM (inactive) | > 30 µM (inactive) | > 30 µM (inactive)
7 | CN1CCC(COc2cnc(-c3cccc(Cn4nc(-c5cccc(C#N)c5)ccc4=O)c3)nc2)CC1 [TEPOTINIB] | > 30 µM (inactive) | > 30 µM (inactive) | > 30 µM (inactive) | > 30 µM (inactive) | > 30 µM (inactive) |  | > 30 µM (inactive)
8 | O=c1sn(-c2cccc3ccccc23)c(=O)n1Cc1ccccc1 [TIDEGLUSIB] | > 30 µM (inactive) | > 30 µM (inactive) | > 30 µM (inactive) | > 30 µM (inactive) | > 30 µM (inactive) | > 30 µM (inactive) | 

Next, values leading:

Row | Kd [1] | Kd [2] | Kd [3] | Kd [4] | Kd (Ephrin type-A receptor 7) | Kd [5] | Kd [6] | SMILES
9 | > 30 µM (inactive) | > 30 µM (inactive) |  | > 30 µM (inactive) | > 30 µM (inactive) | > 30 µM (inactive) |  | COc1ccc(-c2ccc3c(N4CCOC[C@@H]4C)nc(N4CCOC[C@@H]4C)nc3n2)cc1CO [AZD-8055]
10 | > 30 µM (inactive) | > 30 µM (inactive) |  | > 30 µM (inactive) | > 30 µM (inactive) | > 30 µM (inactive) | > 30 µM (inactive) | O=C1NC(=O)/C(=C/c2ccc3nccc(-c4ccncc4)c3c2)S1 [GSK-1059615]
11 | > 30 µM (inactive) | > 30 µM (inactive) | > 30 µM (inactive) | > 30 µM (inactive) | > 30 µM (inactive) |  | > 30 µM (inactive) | OCCn1cc(-c2cnc3nnn(Cc4ccc5ncccc5c4)c3n2)cn1 [PF-04217903]
